pIC50: −log10 of the molar value.
Molecular target: Human Kidney Microsome-derived 20-HETE-producing Enzyme
Test: Inhibitory effect against human kidney microsome-derived 20-HETE-producing enzyme
Assay type: biochemical
Conditions: human kidney microsomal fraction, tritium-arachidonic acid substrate, NADPH, 37° C. for 1.5 hours, pH 7.4; read-out: IC50 (50% inhibition of 20-HETE production)
Method: Inhibitory Effect Against Human Kidney Microsome-derived 20-HETE-producing Enzyme
The compounds listed in the table above were tested for their inhibitory effect against 20-HETE production.
This test was performed as described in J. Pharmacol. Exp. Ther., vol. 268, p. 474, 1994.
A test drug solution adjusted with DMSO to 1 μM was added to 50 mM 3-morpholinopropanesulfonate (MOPS) buffer (pH 7.4) containing 5 mM magnesium chloride and 1 mM ethylenediaminetetraacetic acid disodium salt (EDTA). The resulting mixture was further supplemented with a human kidney microsomal fraction (Human Cell Culture Center, Anatomic Gift Foundation) as an enzyme source, [5,6,8,9,11,12,14,15]tritium-arachidonic acid as a substrate, and NADPH as a coenzyme, followed by reaction at 37° C. for 1.5 hours. After addition of formic acid to stop the reaction, the reaction mixture was supplemented with acetonitrile (final concentration: 50%). The level of 20-HETE production was measured by high performance liquid chromatography using an ODS column (Biosil C18, BioRad Laboratories) and a radioisotope detector. Assuming that the level of 20-HETE production in the absence of a test compound was set to 100%, the concentration required for the test compound to cause 50% inhibition of 20-HETE production was calculated (IC50 value).

CN(C)CC(C)(C)CCc1ccc(N/C=N/O)cc1 [Example 1, N-[4-(4-N,N-dimethylamino-3,3-dimethyl-butyl)phenyl]-N′-hydroxyformamidine]
pIC50: 7.98
